From patent US10472336B2, “Modulators of indoleamine 2,3-dioxygenase” (GlaxoSmithKline Intellectual Property (No.2) Limited, priority 2015, dated 2019)
Structures can show the parent of a compound that is named as a salt.

Columns and labels:
[1] = target: T1, indoleamine 2, 3-dioxygenase (IDO1) (Homo sapiens, UniProt P14902); test: PBMC IDOi assay (kynurenine detection by mass spectrometry); format: cell-based; details: IFN-γ and LPS stimulated human PBMC, 2 days
Experimental: Compounds of the present invention were tested via high-throughput cellular assays utilizing detection of kynurenine via mass spectrometry and cytotoxicity as end-points. For the mass spectrometry and cytotoxicity assays, human peripheral blood mononuclear cells (PBMC) (PB003F; AllCells®, Alameda, Calif.) were stimulated with human interferon-γ (IFN-γ) (Sigma-Aldrich Corporation, St. Louis, Mo.) and lipopolysaccharide from Salmonella minnesota (LPS) (Invivogen, San Diego, Calif.) to induce the expression of indoleamine 2, 3-dioxygenase (IDO1). Compounds with IDO1 inhibitory properties decreased the amount of kynurenine produced by the cells via the tryptophan catabolic pathway. Cellular toxicity due to the effect of compound treatment was measured using CellTiter-Glo® reagent (CTG) (Promega Corporation, Madison, Wis.), which is based on luminescent detection of ATP, an indicator of metabolically active cells.
In preparation for the assays, test compounds were serially diluted 3-fold in DMSO from a typical top concentration of 5 mM and plated at 0.5 μL in 384-well, polystyrene, clear bottom, tissue culture treated plates with lids (Greiner Bio-One, Kremsmünster, Austria) to generate 11-point dose response curves. Low control wells (0% kynurenine or 100% cytotoxicity) contained either 0.5 μL of DMSO in the presence of unstimulated (−IFN-γ/−LPS) PBMCs for the mass spectrometry assay or 0.5 μL of DMSO in the absence of cells for the cytotoxicity assay, and high control wells (100% kynurenine or 0% cytotoxicity) contained 0.5 μL of DMSO in the presence of stimulated (+IFN-γ/+LPS) PBMCs for both the mass spectrometry and cytotoxicity assays.
Frozen stocks of PBMCs were washed and recovered in RPMI 1640 medium (Thermo Fisher Scientific, Inc., Waltham, Mass.) supplemented with 10% v/v heat-inactivated fetal bovine serum (FBS) (Thermo Fisher Scientific, Inc., Waltham, Mass.), and 1× penicillin-streptomycin antibiotic solution (Thermo Fisher Scientific, Inc., Waltham, Mass.). The cells were diluted to 1,000,000 cells/mL in the supplemented RPMI 1640 medium. 50 μL of either the cell suspension, for the mass spectrometry assay, or medium alone, for the cytotoxicity assay, were added to the low control wells, on the previously prepared 384-well compound plates, resulting in 50,000 cells/well or 0 cells/well respectively. IFN-γ and LPS were added to the remaining cell suspension at final concentrations of 100 ng/ml and 50 ng/ml respectively, and 50 μL of the stimulated cells were added to all remaining wells on the 384-well compound plates. The plates, with lids, were then placed in a 37° C., 5% CO2 humidified incubator for 2 days.
Following incubation, the 384-well plates were removed from the incubator and allowed to equilibrate to room temperature for 30 minutes. For the cytotoxicity assay, CellTiter-Glo® was prepared according to the manufacturer's instructions, and 40 μL were added to each plate well. After a twenty minute incubation at room temperature, luminescence was read on an EnVision® Multilabel Reader (PerkinElmer Inc., Waltham, Mass.). For the mass spectrometry assay, 10 μL of supernatant from each well of the compound-treated plates were added to 40 μL of acetonitrile, containing 10 μM of an internal standard for normalization, in 384-well, polypropylene, V-bottom plates (Greiner Bio-One, Kremsmünster, Austria) to extract the organic analytes. Following centrifugation at 2000 rpm for 10 minutes, 10 μL from each well of the acetonitrile extraction plates were added to 90 μL of sterile, distilled H2O in 384-well, polypropylene, V-bottom plates for analysis of kynurenine and the internal standard on the RapidFire 300 (Agilent Technologies, Santa Clara, Calif.) and 4000 QTRAP MS (SCIEX, Framingham, Mass.). MS data were integrated using Agilent Technologies' RapidFire Integrator software, and data were normalized for analysis as a ratio of kynurenine to the internal standard. […]

[2] = target: T1, indoleamine 2, 3-dioxygenase (IDO1); test: HeLa IDOi assay (kynurenine detection by mass spectrometry); format: cell-based; set-up: human epithelial HeLa cells (CCL-2; host or cells: HeLa cells stimulated with human IFN-γ; details: IFN-γ stimulated human epithelial HeLa cells, 2 days
In short: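 HeLa cells (5,000/well) stimulated with 10 nM IFN-γ to induce IDO1 were exposed to 11-point compound dilutions for 2 days at 37 °C. Supernatant kynurenine was measured by RapidFire MS as a ratio to internal standard; cytotoxicity was read with CellTiter-Glo. Four-parameter fits gave pIC50 and pCC50.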

T1 sequence (P14902 whole entry): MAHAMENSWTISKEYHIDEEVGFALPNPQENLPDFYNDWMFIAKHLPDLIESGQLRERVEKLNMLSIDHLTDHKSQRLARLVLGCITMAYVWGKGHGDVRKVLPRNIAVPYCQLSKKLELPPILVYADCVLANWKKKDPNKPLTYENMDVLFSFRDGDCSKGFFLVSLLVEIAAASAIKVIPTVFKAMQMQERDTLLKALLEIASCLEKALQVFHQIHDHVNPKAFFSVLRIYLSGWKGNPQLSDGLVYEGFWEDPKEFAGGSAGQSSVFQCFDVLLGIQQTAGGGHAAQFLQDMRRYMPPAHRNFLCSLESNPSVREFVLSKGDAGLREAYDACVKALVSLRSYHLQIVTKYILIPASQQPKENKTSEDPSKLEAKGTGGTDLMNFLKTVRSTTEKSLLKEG

Row | Structure (SMILES) | EC50 [1] [µM] | EC50 [2] [µM]
1 | CC(C)CN(CC(C)C)c1ccc([C@H](C)CC(=O)O)cc1Nc1nc(C(F)(F)F)ns1 [Example 54, (R)-3-(4-(diisobutylamino)-3-((3-(trifluoromethyl)-1,2,4-thiadiazol-5-yl)amino)phenyl)butanoic acid] | 0.002 | 0.00631
2 | Cc1nc(C(F)(F)F)sc1Nc1cc(C(C)CC(=O)O)ccc1N(CC(C)C)CC(C)C (centres unmarked) [Example 60, 3-(4-(diisobutylamino)-3-((4-methyl-2-(trifluoromethyl)thiazol-5-yl)amino)phenyl)butanoic acid] | 0.398 | 0.501
3 | CC(C)CN(c1ccc(C(C)CC(=O)O)cc1NCc1cccs1)C1CCCCC1 (centres unmarked) [Example 20, 3-(4-(cyclohexyl(isobutyl)amino)-3-((thiophen-2-ylmethyl)amino)phenyl)butanoic acid] | 0.0501 | 0.126
4 | CC(C)CN(CC(C)C)c1ccc([C@H](C)CC(=O)O)cc1Nc1nc(Cl)ns1 [Example 42, (R)-3-(3-((3-chloro-1,2,4-thiadiazol-5-yl)amino)-4-(diisobutylamino)phenyl)butanoic acid] | 0.00794 | 0.0398
5 | CC(C)CN(CC(C)C)c1ccc(C(C)CC(=O)O)cc1Nc1cnccn1 (centres unmarked) [Example 58, 3-(4-(diisobutylamino)-3-(pyrazin-2-ylamino)phenyl)butanoic acid] | 0.158 | 0.316
6 | COc1nccc(Nc2cc(C(C)CC(=O)O)ccc2N(CC(C)C)CC(C)C)n1 (centres unmarked) [Example 12, 3-(4-(diisobutylamino)-3-((2-methoxypyrimidin-4-yl)amino)phenyl)butanoic acid, 2,2,2-trifluoroacetic acid salt] | 0.158 | 0.126
7 | CC(C)CN(CC(C)C)c1ccc(C(C)CC(=O)O)cc1Nc1nc2ccccc2o1 (centres unmarked) [Example 1, 3-(3-(benzo[d]oxazol-2-ylamino)-4-(diisobutylamino)phenyl)butanoic acid] | 0.631 | 0.398

The remaining lines, values ahead:

Row | EC50 [1] [µM] | EC50 [2] [µM] | Structure (SMILES)
8 | 0.000631 | 0.00631 | CC(C)CN(c1ccc([C@H](C)CC(=O)O)cc1Nc1nc(Cl)ns1)C1CCCCC1 [Example 40, (R)-3-(3-((3-chloro-1,2,4-thiadiazol-5-yl)amino)-4-(cyclohexyl(isobutyl)amino)phenyl)butanoic acid]
9 | 0.02 | 0.0316 | CC(C)CN(c1ccc(C(C)CC(=O)O)cc1NC1=N[C@@H](C(F)(F)F)CO1)C1CCCCC1 (stereo partly drawn) [Example 76, 3-(4-(Cyclohexyl(isobutyl)amino)-3-(((R)-4-(trifluoromethyl)-4,5-dihydrooxazol-2-yl)amino)phenyl)butanoic acid]
10 | 0.251 | 0.501 | CC(C)CN(c1ccc(C(C)CC(=O)O)cc1NCc1nccs1)C1CCCCC1 (centres unmarked) [Example 21, 3-(4-(cyclohexyl(isobutyl)amino)-3-((thiazol-2-ylmethyl)amino)phenyl)butanoic acid]
11 | 0.0501 | 0.1 | CC(C)CN(c1ccc(C(C)CC(=O)O)cc1NC1CCCCC1)C1CCCCC1 (centres unmarked) [Example 19, 3-(4-(cyclohexyl(isobutyl)amino)-3-(cyclohexylamino)phenyl)butanoic acid]
12 | 0.000794 | 0.00316 | CC(C)CN(c1ccc([C@H](C)CC(=O)O)cc1Nc1nc(C(F)(F)F)cs1)C1CCCCC1 [Example 49, (R)-3-(4-(cyclohexyl(isobutyl)amino)-3-((4-(trifluoromethyl)thiazol-2-yl)amino)phenyl)butanoic acid]
13 | 0.2 | 0.501 | CC(C)CN(c1ccc(C(C)CC(=O)O)cc1NCc1ccco1)C1CCCCC1 (centres unmarked) [Example 59, 3-(4-(cyclohexyl(isobutyl)amino)-3-((furan-2-ylmethyl)amino)phenyl)butanoic acid]
